Patent publication EP0933027A1, “Methods and compositions for protecting animals and humans against attack and infestation by arthropod and helminth parasites” (American Cyanamid Company, priority 1998, dated 1999)
Read-outs that look alike come from different tables or passages of the source.

Columns and labels:
[1] = tested on: Dermacentor variabilis; experiment: Contact activity against larval American dog tick (coated vial)
Experimental: This test is designed to evaluate the contact activity of test compounds against the American dog tick. Test compounds are dissolved in 100% acetone to 1000, 300, 100, 10, 1 and 0.1 ppm. 100 µL of each of these dilutions is added to the bottom of a 20 mL glass scintillation vial with a pipettor. The vial is allowed to dry under a fume hood for 15 minutes. The vial is then turned in its side, and 250 µL of each dilution is applied to the sides of the vial. The vial is placed on a rolling machine and allowed to roll under the hood, coating the sides of the vial, until the acetone completely evaporates. The bottom of the vial measures 4.909 cm^2 and the sides measure 4.5 cm high x 8.8 cm around, so that the total coated area of the scintillation vial measures 44.51 cm^2. The amount of test compound applied by each dilution equals 7.86, 2.36, 0.79, 0.079, 0.0079 and 0.00079 µg/cm^2, respectively. Unfed larval dog ticks are counted into the scintillation vials with a slightly damp paintbrush. Ten ticks are placed in each vial. These tests are done in replicates of two or three so that there are 20 to 30 ticks per rate/compound. Mortality readings are taken 4 and 24 hours after placing the ticks in the vials. To read the test, the vial is placed under a magnifying glass and tapped gently. […] Percent mortality is then calculated for each treatment.

[2] = tested on: Pyrethroid-resistant horn fly (Haematobia irritans); experiment: Treated filter paper test against adult pyrethroid-resistant horn fly; conditions: corrected for control mortality
Experimental: Test doses are expressed as µg of test substance per cm^2 of filter paper. • 1) Prepare solutions of test compound in acetone such that 800 or 1000 µL contains the amount necessary to obtain the desired dose rate. • 2) Pipette 800 or 1000 µL of test solution onto filter paper. • 3) Filter papers are dried under a fume hood. • 4) When dry, filter papers are placed in the petri dish tops. Dishes are generally held about 24 hours before test organism is added. • 5) Two- to five-day-old horn flies (pyrethroid-susceptible or -resistant) which have had two or more blood meals are used in the assay. Flies are collected into a small vial from the holding cage. Vials are then chilled in a freezer for about 4 minutes to immobilize the flies. Immobilized flies are then distributed to petri dish bottoms, 12 to 25 flies per dish, then dishes are closed and inverted. • 6) As soon as the flies become mobile (about 5 minutes), they are examined to detect any flies that are dead or injured. This number is subtracted from total number of flies in the dish. • 7) Petri dishes are held at room temperature and examined at the desired time intervals which might be 10 minutes to 6 hours. • 8) All dead flies are recorded at each examination time. […] 10) Percent mortality at any time period is calculated using the following formula: (Number of dead flies - number dead @ 5 min)/(Total number of flies - number dead @ 5 min)x 100 [formula] Percent mortality is then corrected for control mortality using Abbot's formula.

[3] = tested on: Bovicola spp.; experiment: Coated vial test against adult biting louse; conditions: for mortality at 2 µg/cm2: dose 2.0 µg/cm^2; for mortality at 6.1 µg/cm2: dose 6.1 µg/cm^2
Experimental: This test is designed to evaluate the activity of test compounds against the biting louse. Test compounds are dissolved in 100% acetone to 300, 100 and 10 ppm. 100 µL of each of these dilutions is added to the bottom of a 20 mL glass scintillation vial with a pipettor. The vial is allowed to dry under a fume hood for 15 minutes. The bottom of the vial measures 4.909 cm^2. The amount of test compound applied by each dilution equals 6.1, 2.0 and 0.2 µg/cm^2, respectively. Included in all tests are two to three replications of untreated vials. Lice are collected from the host animal and are used within 4 hours. The lice are counted into the scintillation vials with a slightly damp paintbrush. Five adult lice are placed in each vial. These tests are done in replicates of two or three so that there are 10 to 15 lice per rate/compound. Mortality readings are taken at 2 and 4 hours after placing the lice in the vials. To read the test, the vial is placed under a magnifying glass. […] Percent mortality is then calculated for each treatment.

[4] = tested on: Ctenocephalides felis; experiment: Contact activity against adult cat flea, with and without piperonyl butoxide
Experimental: This test is designed to evaluate the contact activity of test compounds against the adult cat flea. Test compounds are dissolved in 100% acetone to 300, 100, 10 and 1 ppm. 100 µL of each of these dilutions is added to the bottom of a 20 mL glass scintillation vial with a pipettor. The vial is allowed to dry under a fume hood for 15 minutes. The bottom of the vial measures 4.909 cm^2. The amount of test compound applied by each dilution equals 6.2, 2.0, 0.2 and 0.02 µg/cm^2, respectively. Newly emerged adult cat fleas are anesthetized with CO2 to immobilize, and are counted into the scintillation vials with forceps. Five fleas are placed in each vial. These tests are done in replicates of two or three so that there are 10 to 15 fleas per rate/compound. Mortality readings are taken 4 and 24 hours after placing the fleas in the vials. […] Percent mortality is then calculated for each treatment.
This test evaluates the synergistic effect of piperonyl butoxide on the formula I compounds of this invention. Piperonyl butoxide (PBO) is added in an amount of 1.5% to a 1,000 ppm solution of a test compound in acetone. Dilutions are then made with acetone to provide solutions containing 300, 100, 10 and 1 ppm of the test compound and 0.45%, 0.15%, 0.015% and 0.0015% piperonyl butoxide, respectively. Solutions containing 1,000, 300, 100, 10 and 1 ppm of the test compound alone are used as the control. The evaluations are conducted according to the procedure described in Example 1.

[5] = 4 h, read-out: 4 Hour % Mortality
[6] = 24 h, read-out: 24 Hour % Mortality
[7] = 2 hours, read-out: 2 Hour % Mortality
[8] = 4 hours, read-out: 4 Hour % Mortality

For `F/C(=C\Cc1ccc(F)c(Oc2ccccc2)c1)C(c1ccc(Cl)cc1)C1CC1` (centres unmarked) [Compound 5, 1-[1-(p-Chlorophenyl)-2-fluoro-4-(4-fluoro-3-phenoxyphenyl)-2-butenyl]cyclopropane, (Z)-], the mortality at 0.00079 µg/cm2 [1, 5] was 100%, the mortality at 0.0079 µg/cm2 [1, 5] was 100% and the mortality at 0.079 µg/cm2 [1, 5] was 100%. The mortality at 0.79 µg/cm2 [1, 5] was 100%, the mortality at 2.36 µg/cm2 [1, 5] was 100% and the mortality at 7.86 µg/cm2 [1, 5] was 100%. The mortality at 0.00079 µg/cm2 [1, 6] was 100%, the mortality at 0.0079 µg/cm2 [1, 6] was 100% and the mortality at 0.079 µg/cm2 [1, 6] was 100%. For the same compound, the mortality at 0.79 µg/cm2 [1, 6] was 100%, the mortality at 2.36 µg/cm2 [1, 6] was 100% and the mortality at 7.86 µg/cm2 [1, 6] was 100%. The mortality at 1.25 µg/cm2 ([2]; dose 1.25 µg/cm^2, 6 hours) was 0%, the mortality at 2.5 µg/cm2 ([2]; dose 2.50 µg/cm^2, 6 hours) was 1% and the mortality at 5 µg/cm2 ([2]; dose 5.00 µg/cm^2, 6 hours) was 7%. The mortality at 10 µg/cm2 ([2]; dose 10.0 µg/cm^2, 6 hours) was 33%, the mortality at 20 µg/cm2 ([2]; dose 20.0 µg/cm^2, 6 hours) was 93% and the mortality at 2 µg/cm2 [3, 7] was 92%. It also gave a mortality at 2 µg/cm2 [3, 8] of 100%, a mortality at 6.1 µg/cm2 [3, 7] of 100% and a mortality at 6.1 µg/cm2 [3, 8] of 100%. The mortality at 0.02 µg/cm2 ([4]; 4 h, dose 0.02 µg/cm^2, 0.0 % PBO (test compound alone), 4 hours, read-out: 4 Hour % Mortality) was 0%, the mortality at 0.02 µg/cm2 ([4]; 4 h, dose 0.02 µg/cm^2, 0.0015 % PBO in composition, 4 hours, read-out: 4 Hour % Mortality) was 0% and the mortality at 0.2 µg/cm2 ([4]; 4 h, dose 0.2 µg/cm^2, 0.0 % PBO (test compound alone), 4 hours, read-out: 4 Hour % Mortality) was 20%. It also gave a mortality at 0.2 µg/cm2 ([4]; 4 h, dose 0.2 µg/cm^2, 0.015 % PBO in composition, 4 hours, read-out: 4 Hour % Mortality) of 40%, a mortality at 2 µg/cm2 ([4]; 4 h, dose 2.0 µg/cm^2, 0.0 % PBO (test compound alone), 4 hours, read-out: 4 Hour % Mortality) of 30% and a mortality at 2 µg/cm2 ([4]; 4 h, dose 2.0 µg/cm^2, 0.15 % PBO in composition, 4 hours, read-out: 4 Hour % Mortality) of 20%. It also gave a mortality at 6.2 µg/cm2 ([4]; 4 h, dose 6.2 µg/cm^2, 0.0 % PBO (test compound alone), 4 hours, read-out: 4 Hour % Mortality) of 30%, a mortality at 6.2 µg/cm2 ([4]; 4 h, dose 6.2 µg/cm^2, 0.45 % PBO in composition, 4 hours, read-out: 4 Hour % Mortality) of 20% and a mortality at 20 µg/cm2 ([4]; 4 h, dose 20.0 µg/cm^2, 0.0 % PBO (test compound alone), 4 hours, read-out: 4 Hour % Mortality) of 100%. It also gave a mortality at 20 µg/cm2 ([4]; 4 h, dose 20.0 µg/cm^2, 1.50 % PBO in composition, 4 hours, read-out: 4 Hour % Mortality) of 100%, a mortality at 0.02 µg/cm2 ([4]; 24 h, dose 0.02 µg/cm^2, 0.0 % PBO (test compound alone), 24 hours, read-out: 24 Hour % Mortality) of 10% and a mortality at 0.02 µg/cm2 ([4]; 24 h, dose 0.02 µg/cm^2, 0.0015 % PBO in composition, 24 hours, read-out: 24 Hour % Mortality) of 70%. For the same compound, the mortality at 0.2 µg/cm2 ([4]; 24 h, dose 0.2 µg/cm^2, 0.0 % PBO (test compound alone), 24 hours, read-out: 24 Hour % Mortality) was 20%, the mortality at 0.2 µg/cm2 ([4]; 24 h, dose 0.2 µg/cm^2, 0.015 % PBO in composition, 24 hours, read-out: 24 Hour % Mortality) was 100% and the mortality at 2 µg/cm2 ([4]; 24 h, dose 2.0 µg/cm^2, 0.0 % PBO (test compound alone), 24 hours, read-out: 24 Hour % Mortality) was 100%. The mortality at 2 µg/cm2 ([4]; 24 h, dose 2.0 µg/cm^2, 0.15 % PBO in composition, 24 hours, read-out: 24 Hour % Mortality) was 100%, the mortality at 6.2 µg/cm2 ([4]; 24 h, dose 6.2 µg/cm^2, 0.0 % PBO (test compound alone), 24 hours, read-out: 24 Hour % Mortality) was 100% and the mortality at 6.2 µg/cm2 ([4]; 24 h, dose 6.2 µg/cm^2, 0.45 % PBO in composition, 24 hours, read-out: 24 Hour % Mortality) was 100%. The mortality at 20 µg/cm2 ([4]; 24 h, dose 20.0 µg/cm^2, 0.0 % PBO (test compound alone), 24 hours, read-out: 24 Hour % Mortality) was 100% and the mortality at 20 µg/cm2 ([4]; 24 h, dose 20.0 µg/cm^2, 1.50 % PBO in composition, 24 hours, read-out: 24 Hour % Mortality) was 100%.
